In one experiment the test system is RDW23166.1. To be noted: acetyl-CoA co-substrate presumed; conditions in supplement.
The target in the next experiment is T1, LYC1 (Yarrowia lipolytica, UniProt P41929).
T1 sequence (P41929 1-392): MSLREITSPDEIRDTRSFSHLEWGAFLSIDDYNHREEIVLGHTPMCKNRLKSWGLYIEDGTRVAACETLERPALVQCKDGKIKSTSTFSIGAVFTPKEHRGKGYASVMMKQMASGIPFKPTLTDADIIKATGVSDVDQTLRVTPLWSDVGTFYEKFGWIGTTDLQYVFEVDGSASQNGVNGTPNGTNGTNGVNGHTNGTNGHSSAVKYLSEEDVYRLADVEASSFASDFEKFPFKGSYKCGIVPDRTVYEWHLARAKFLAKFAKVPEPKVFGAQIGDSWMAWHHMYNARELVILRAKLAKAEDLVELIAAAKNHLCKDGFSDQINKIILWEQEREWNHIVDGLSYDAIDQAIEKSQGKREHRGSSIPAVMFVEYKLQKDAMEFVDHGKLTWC
Nature of the experiment: LC-MS of dansylated product. It is filed as biochemical. To be noted: with acetyl-CoA.

Structures are written as SMILES.

Turning to `NCCCC[C@H](N)C(=O)O` [lysine], in the experiment with RDW23166.1, the Michaelis constant (Km) was 6.21 mM. Further, the “LC-MS of dansylated product” value at LYC1 is on record as “confirming that LYC1 catalyzes lysine acetylation specifically with acetyl-CoA as the substrate”.

These data come from paper PMC12549914 (Nature Communications, 2025).
